Reference: patent publication US20250332173A1, “COMPOUNDS AND METHODS FOR MODULATING NUCLEIC ACID SPLICING” (REMIX THERAPEUTICS INC., priority 2021, published 2025)
Read-outs that look alike come from different tables or passages of the source.

Legend:
[1] = tested on: MYB; test: HiBiT protein abundance assay, MYB HiBiT K562 cell line; assay type: cell-based, human; conditions: HiBiT K562 cell line, 24 hours, top dose 10 μM; read-out: Effect on protein abundance, MYB (IC50 category)
Method: (§1) Compounds described herein were used to screen for effects on quantitative protein abundance using a HiBit assay system (Promega). Quantitative protein abundance was determined by measuring the protein levels of HiBit-tagged protein targets expressed in cell culture via luminescence using the Nano-Glo HiBiT Lytic Detection System, which uses a split complementation assay format to reconstitute NanoBiT enzyme to generate a luminescent signal. A protein abundance assay was developed such that endogenous protein targets could be modified with the HiBiT peptide tag and their abundance could be assessed after compound treatment. Briefly, K562 cell lines containing a HiBiT-modification were treated with various compounds described herein (e.g., compounds of Formulas (I), (II), (III), (IV), (V), (VI), (VII), (VIII), or (IX)). After treatment for 24 hours, the protein abundance of a specific target was determined by measuring luminescence.
(§2) • Promega Nano-Glo HiBiT Lytic Detection System (cat #N3030) • Corning 384-well TC-treated microplates (cat #3570) • Synthego Engineered Cells Knock-In Clones
(§3) Cells were maintained in IMDM with 10% FBS. Before the assay, cells were diluted with […] growth media (IMDM+[…] media) and were seeded in a 384-well plate at a density of 10,000 cells/well (for each cell line listed in Table 5). Each compound was prepared as a 10-point 3-fold serial dilution in DMSO with the top dose at a final concentration of 10 μM in the well. Unmodified K562 cells were added at the previously specified density with DMSO to serve as an assay baseline and positive control (PC) and DMSO only with the respective modified cell lines was added to the negative control (NC) columns. Final DMSO concentration was kept at or below 0.25%. Treated cell plates were placed in an incubator at 37° C. with […] for 24 hours. After 24 hours, 25 μL of Complete HiBit Lytic reagent was added to each well at room temperature (e.g. one plate requiring 10 mL Lytic Buffer, 100 μL LgBiT Protein, 200 μL Lytic Substrate), shaken for 5 minutes at 600 RPM, then left to sit for 10 minutes for signal to stabilize before reading on a Spark Cyto plate reader (Tecan) with a 500 ms measurement time.
(§4) To determine compound effects on protein abundance of each target in Table 5, the percent response for each respective cell line was calculated at each compound concentration as follows:
(§5) For the normalized response at each concentration, a four-parameter logistical regression was fit to the data and the response was interpolated at the […] to determine a concentration for protein abundance at […] the untreated control.

[2] = tested on: HTT; test: HiBiT protein abundance assay, HTT HiBiT K562 cell line; assay type: cell-based, human; conditions: HiBiT K562 cell line, 24 hours, top dose 10 μM; read-out: Effect on protein abundance, HTT (IC50 category)
Method: as §1, §2, §3, §4, §5

[3] = tested on: K562 (human chronic myelogenous leukemia) cells; test: Cell Titer Glo 2.0 cell viability assay; assay type: cell-based; conditions: Homo sapiens, K562, 72 h, K562 cells, 72 hours, Cell Titer Glo 2.0; read-out: K562 GI50
[4] = tested on: Target C; test: HiBiT protein abundance assay, Target C (Promega Nano-Glo HiBiT Lytic Detection System, knock-in K562 cell line); assay type: cell-based, human; conditions: Homo sapiens, K562, 24 h, HiBiT K562 cell line, 24 hours, top dose 10 μM; read-out: Effect on protein abundance, Target C (IC50 category)
Method: as §2, §3, §4, §5

[5] = tested on: HTT mRNA; test: RT-qPCR splicing assay, HTT canonical junction (CJ) and alternative junction (AJ) mRNA; assay type: cell-based, human; conditions: Homo sapiens; for AC50: increase in HTT alternative junction (AJ) mRNA, read-out: HTT AJ AC50
Method in brief: (§6)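 Read-out is one-step RT-qPCR on cell lysates detecting the exon-exon junction of each isoform, normalized to a housekeeping gene (PPIA in A673, GAPDH or GUSB in K562).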

[6] = tested on: MYB mRNA; test: RT-qPCR splicing assay, MYB canonical junction (CJ) and alternative junction (AJ) mRNA; assay type: cell-based, human; conditions: Homo sapiens; for AC50: increase in MYB alternative junction (AJ) mRNA, read-out: MYB AJ AC50
Method in brief: as §6

[7] = tested on: SMN2 mRNA; test: RT-qPCR splicing assay, SMN2 canonical junction (CJ) mRNA; assay type: cell-based, human; conditions: Homo sapiens
Method in brief: (§7)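 Canonical-junction transcript levels in compound-treated A673 or K562 cells (24 h, up to 10 uM final) were determined from lysates by RT-qPCR with housekeeping-gene normalization.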

[8] = tested on: Target C; test: RT-qPCR splicing assay panel, Target C canonical junction (CJ) mRNA; assay type: cell-based, human; conditions: Homo sapiens
Method in brief: as §7

[9] = decrease in HTT canonical junction (CJ) mRNA, RT-qPCR, read-out: HTT CJ IC50
[10] = decrease in MYB canonical junction (CJ) mRNA, RT-qPCR, read-out: MYB CJ IC50

Row | Structure (SMILES) | IC50 [1] | IC50 [2] | GI50 [3] | IC50 [4] | other results
1 | Cc1cn2nc(-c3cc4ncn(C5CCNCC5)c(=O)c4cc3O)cc(C)c2n1 [Compound 503, 7-{2,8-dimethylimidazo[1,2-b]pyridazin-6-yl}-6-hydroxy-3-(piperidin-4-yl)quinazolin-4-one] | < 100 nM | < 100 nM | 1000 to 10000 nM | 100 to 1000 nM | 
2 | Cc1cn2nc(-c3ccc4c(=O)c(C5CCNCC5)cn(C)c4c3)cc(C)c2n1 [Compound 590] | 100 to 1000 nM | 1000 to 10000 nM | 1000 to 10000 nM | 1000 to 10000 nM | 
3 | Cc1cn2nc(-c3cc(F)c4c(=O)n(C5CCN(C)C6(CC6)C5)ncc4c3)cc(C)c2n1 (stereo not drawn) [Compound 565] | < 100 nM | < 100 nM | 100 to 1000 nM | < 100 nM | 
4 | Cc1cn2nc(-c3cc(O)c4c(=O)n(C5CCNC6(CC6)C5)ccc4c3)cc(C)c2n1 (stereo not drawn) [Compound 466, 6-(2,8-dimethylimidazo[1,2-b]pyridazin-6-yl)-8-hydroxy-2-(4-azaspiro[2.5]octan-7-yl)isoquinolin-1(2H)-one] | < 100 nM | < 100 nM | < 100 nM | < 100 nM | 
5 | Cc1cn2cc(-c3cc(O)c4c(=O)n(C5CCNC5)cnc4c3)cc(C#N)c2n1 (stereo not drawn) [Compound 507, 6-[5-hydroxy-4-oxo-3-(pyrrolidin-3-yl)quinazolin-7-yl]-2-methylimidazo[1,2-a]pyridine-8-carbonitrile; trifluoroacetic acid] | 1000 to 10000 nM | > 10000 nM | 1000 to 10000 nM | 1000 to 10000 nM | 
6 | Cc1cn2nc(-c3cc(N)c4c(=O)n(C5CCNCC5)ncc4c3)cc(C)c2n1 [Compound 566] | 100 to 1000 nM | 100 to 1000 nM | 100 to 1000 nM | 100 to 1000 nM | 
7 | Cc1nc2cc(O)c(-c3ccc4c(=O)n(C5CCNCC5)ccc4n3)cc2o1 [Compound 1237] | < 100 nM | < 100 nM | < 100 nM | < 100 nM | 
8 | Cc1c(O)c(-c2ncc3c(=O)n([C@H]4CC[C@H](N)C4)ccc3n2)cc2cn(C)nc12 [Compound 1334] | 100 to 1000 nM | 100 to 1000 nM | 100 to 1000 nM | 1000 to 10000 nM | 
9 | Cc1cn2cc(-c3ccc4c(=O)c(C5CCNCC5)cn(C)c4c3)nc(C)c2n1 [Compound 591] | 1000 to 10000 nM | > 10000 nM | 1000 to 10000 nM | > 10000 nM | 
10 | Cc1cn2cc(-c3ccc4c(=O)n(C5CCNCC5)ccc4n3)cc(F)c2n1 [Compound 1230, 2-(8-fluoro-2-methylimidazo[1,2-a]pyridin-6-yl)-6-(piperidin-4-yl)-1,6-naphthyridin-5(6H)-one] | < 100 nM | < 100 nM | < 100 nM | 100 to 1000 nM | 
11 | Cc1c(O)c(-c2ncc3c(=O)n(C45CCC(N)(C4)C5)ccc3n2)cc2cn(C)nc12 [Compound 1324] | 100 to 1000 nM | 1000 to 10000 nM | 100 to 1000 nM | 1000 to 10000 nM | 
12 | Cc1cn2cc(-c3ncc4c(=O)n(C5CCNCC5)ccc4n3)cc(F)c2n1 [Compound 1213, 2-(8-fluoro-2-methylimidazo[1,2-a]pyridin-6-yl)-6-(piperidin-4-yl)pyrido[4,3-d]pyrimidin-5(6H)-one] | 100 to 1000 nM | 100 to 1000 nM | 100 to 1000 nM | 100 to 1000 nM | 
13 | Cn1cc2cc(-c3ccc4c(=O)n([C@H]5CCNC6(CC6)C5)ccc4n3)c(O)cc2n1 [Compound 1245] | < 100 nM | < 100 nM | 100 to 1000 nM | < 100 nM | 
14 | Cn1cc2cc(-c3ccc4c(=O)n(C5CCNCC5)ccc4n3)c(O)c(F)c2n1 [Compound 1226] | < 100 nM | < 100 nM | < 100 nM | < 100 nM | 
15 | Cc1nc2c(o1)CN(c1cc(F)c3c(=O)n(C4CCNCC4)cnc3c1)CC2 [Compound 508, 5-fluoro-7-{2-methyl-4H,6H,7H-[1,3]oxazolo[5,4-c]pyridin-5-yl}-3-(piperidin-4-yl)quinazolin-4-one; trifluoroacetic acid] | 1000 to 10000 nM | > 10000 nM | > 10000 nM | > 10000 nM | 
16 | Cc1c(O)c(-c2ncc3c(=O)n(C45CC(N)(C4)C5)ccc3n2)cc2cn(C)nc12 [Compound 1322] | 1000 to 10000 nM | > 10000 nM | 1000 to 10000 nM | 1000 to 10000 nM | 
17 | COc1cc2c(=O)n(C3CCNCC3)cnc2cc1-c1cc(C)c2nc(C)cn2n1 [Compound 504, 7-{2,8-dimethylimidazo[1,2-b]pyridazin-6-yl}-6-methoxy-3-(piperidin-4-yl)quinazolin-4-one] | > 10000 nM | > 10000 nM | > 10000 nM | > 10000 nM | 
18 | COc1c(-c2ccc3c(=O)n(C4CCNCC4)cnc3n2)cc2cn(C)nc2c1C [Compound 506, 7-(6-methoxy-2,7-dimethylindazol-5-yl)-3-(piperidin-4-yl)pyrido[2,3-d]pyrimidin-4-one] | > 10000 nM | > 10000 nM | > 10000 nM | > 10000 nM | 
19 | Cc1cn2cc(-c3ncc4c(=O)n(C5CCNCC5)c(C)cc4n3)cc(F)c2n1 [Compound 1327] | 100 to 1000 nM | > 10000 nM | 100 to 1000 nM | > 10000 nM | 
20 | Cn1cc2nc(-c3cc(O)c4c(=O)n(C5CCNC6(CC6)C5)ncc4c3)ccc2n1 (stereo not drawn) [Compound 562] | 100 to 1000 nM | 100 to 1000 nM | 100 to 1000 nM | 100 to 1000 nM | 
21 | Cc1cn2cc(-c3cc(F)c4c(=O)n(C5CCNC5)cnc4c3)cc(F)c2n1 (stereo not drawn) [Compound 344] |  |  | 1000 to 10000 nM | > 10000 nM | IC50 [5, 9]: 1000 to 10000 nM; AC50 ([5]; RT-qPCR): 1000 to 10000 nM; IC50 ([5]; Table 5 panel, canonical junction qPCR, compound concentration having 50% response in CJ decrease, read-out: HTT IC50 (decrease in CJ mRNA levels)): 1000 to 10000 nM; IC50 ([6]; Table 5 panel, canonical junction qPCR, compound concentration having 50% response in CJ decrease, read-out: MYB IC50 (decrease in CJ mRNA levels)): 100 to 1000 nM; IC50 [6, 10]: 100 to 1000 nM; AC50 ([6]; RT-qPCR): 100 to 1000 nM; IC50 ([7]; Table 5 panel, canonical junction qPCR, compound concentration having 50% response in CJ decrease, read-out: SMN2 IC50 (decrease in CJ mRNA levels)): < 100 nM; IC50 ([8]; Table 5 panel, canonical junction qPCR, compound concentration having 50% response in CJ decrease, read-out: Target C IC50 (decrease in CJ mRNA levels)): 1000 to 10000 nM
22 | Cc1cn2cc(-c3ncc4c(=O)n(C5C[C@@H](C)N[C@H](C)C5)ccc4n3)cc(F)c2n1 (stereo partly drawn) [Compound 1483, 6-[(2R,6R)-2,6-dimethyl-4-piperidyl]-2-(8-fluoro-2-methyl-imidazo[1,2-a]pyridin-6-yl)pyrido[4,3-d]pyrimidin-5-one] |  |  | 100 to 1000 nM |  | IC50 [5, 9]: 1000 to 10000 nM; AC50 ([5]; RT-qPCR): 100 to 1000 nM; IC50 ([5]; canonical junction qPCR panel, Table 5, read-out: HTT (decrease in CJ mRNA levels, IC50)): 100 to 1000 nM; IC50 ([6]; canonical junction qPCR panel, Table 5, read-out: MYB (decrease in CJ mRNA levels, IC50)): 100 to 1000 nM; IC50 [6, 10]: 1000 to 10000 nM; AC50 ([6]; RT-qPCR): 100 to 1000 nM; IC50 ([7]; canonical junction qPCR panel, Table 5, read-out: SMN2 (decrease in CJ mRNA levels, IC50)): < 100 nM; IC50 ([8]; canonical junction qPCR panel, Table 5, read-out: Target C (decrease in CJ mRNA levels, IC50)): 100 to 1000 nM
